# Test results published in article PMC12624743 (ACS Infectious Diseases, 2025).
# Key:
# Format in all cases: biochemical
# [1] = biological target: T1, N. gonorrhoeae topoisomerase IV ParC^D86N (Neisseria gonorrhoeae, UniProt P48374, D86N); test: Topoisomerase IV-catalyzed DNA decatenation assay, ParC^D86N
# T1 construct: His; made in house
# T1 sequence (P48374 1-768 D86N): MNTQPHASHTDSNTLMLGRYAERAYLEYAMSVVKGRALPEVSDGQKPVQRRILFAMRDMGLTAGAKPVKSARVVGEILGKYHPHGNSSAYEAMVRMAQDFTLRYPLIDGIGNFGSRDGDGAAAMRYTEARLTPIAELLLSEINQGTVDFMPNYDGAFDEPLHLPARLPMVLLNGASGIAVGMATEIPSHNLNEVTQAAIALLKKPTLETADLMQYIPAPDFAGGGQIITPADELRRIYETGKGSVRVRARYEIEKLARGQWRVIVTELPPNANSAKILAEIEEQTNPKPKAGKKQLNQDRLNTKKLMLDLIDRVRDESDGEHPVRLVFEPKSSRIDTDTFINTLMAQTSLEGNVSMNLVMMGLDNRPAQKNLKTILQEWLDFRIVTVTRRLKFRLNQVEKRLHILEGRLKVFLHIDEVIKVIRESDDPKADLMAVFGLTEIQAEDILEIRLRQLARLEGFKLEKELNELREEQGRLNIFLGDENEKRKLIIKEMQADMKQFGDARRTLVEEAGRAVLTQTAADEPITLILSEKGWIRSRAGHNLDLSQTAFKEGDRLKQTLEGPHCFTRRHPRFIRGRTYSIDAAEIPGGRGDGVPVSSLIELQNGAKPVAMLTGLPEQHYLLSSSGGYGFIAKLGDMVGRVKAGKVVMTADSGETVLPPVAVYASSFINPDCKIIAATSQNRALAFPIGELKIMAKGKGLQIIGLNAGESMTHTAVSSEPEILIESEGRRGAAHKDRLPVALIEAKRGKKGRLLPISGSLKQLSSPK
# Description: All proteins were His-tagged. N. gonorrhoeae WT gyrase (GyrA, GyrB) and topoisomerase IV (ParC, ParE) subunits as well as mutant GyrA^D90N, GyrA^A92T, GyrA^S91F, and GyrA^S91F/D95G gyrase and ParC^D86N and ParC^S88P topoisomerase IV were prepared as described previously. , N. gonorrhoeae mutant GyrA^D95G gyrase and mutant ParC^S87N and ParC^E91G topoisomerase IV were generated using a QuickChange II XL site-directed mutagenesis kit (Agilent Technologies) with custom primers for the desired mutations. Mutant N. gonorrhoeae GyrA and ParC subunits were expressed and purified as described by Ashley et al. with the following modifications to optimize protein expression and lysis: (1) GyrA^D95G was expressed for 2.5 h and ParC^S87N and ParC^E91G were expressed for 3 h before harvesting, and (2) cells were lysed by sonication using a digital sonifier (Branson). The identities of all constructs were confirmed by DNA sequencing, and all enzymes were stored at −80 °C. In all assays, N. gonorrhoeae gyrase or topoisomerase IV was used as a 1:1 GyrA:GyrB or ParC:ParE mixture, respectively, and the stated enzyme concentration reflects that of the holoenzyme (A2B2). […]
# [2] = biological target: T2, N. gonorrhoeae gyrase GyrA^D95G (Neisseria gonorrhoeae, UniProt P48371, D95G); test: Gyrase-catalyzed DNA supercoiling assay, GyrA^D95G
# T2 construct: His; made in house
# Description: (§1) All proteins were His-tagged. N. gonorrhoeae WT gyrase (GyrA, GyrB) and topoisomerase IV (ParC, ParE) subunits as well as mutant GyrA^D90N, GyrA^A92T, GyrA^S91F, and GyrA^S91F/D95G gyrase and ParC^D86N and ParC^S88P topoisomerase IV were prepared as described previously. , N. gonorrhoeae mutant GyrA^D95G gyrase and mutant ParC^S87N and ParC^E91G topoisomerase IV were generated using a QuickChange II XL site-directed mutagenesis kit (Agilent Technologies) with custom primers for the desired mutations. […] The identities of all constructs were confirmed by DNA sequencing, and all enzymes were stored at −80 °C. In all assays, N. gonorrhoeae gyrase or topoisomerase IV was used as a 1:1 GyrA:GyrB or ParC:ParE mixture, respectively, and the stated enzyme concentration reflects that of the holoenzyme (A2B2).
# (§2) Samples were mixed with 2 μL of loading dye [60% sucrose, 10 mM Tris–HCl (pH 7.9), 0.5% bromophenol blue, and 0.5% xylene cyanol FF] and incubated at 45 °C for 2 min before being subjected to electrophoresis on 1% agarose gels in 100 mM Tris-borate (pH 8.3) and 2 mM EDTA. […] DNA bands were visualized with medium-range ultraviolet light and quantified using an Alpha Innotech digital imaging system (Protein Simple). DNA supercoiling was monitored by the conversion of relaxed to supercoiled plasmid.
# WT N. gonorrhoeae gyrase = biological target: T3, WT N. gonorrhoeae gyrase (Neisseria gonorrhoeae, UniProt P48371); test: Gyrase-catalyzed DNA supercoiling assay, WT; conditions: relaxed pBR322, 1.5 mM ATP, read-out: IC50, inhibition of DNA supercoiling
# T3 construct: His; made in house
# Description: as §1, §2
# T2 sequence (P48371 whole entry D95G): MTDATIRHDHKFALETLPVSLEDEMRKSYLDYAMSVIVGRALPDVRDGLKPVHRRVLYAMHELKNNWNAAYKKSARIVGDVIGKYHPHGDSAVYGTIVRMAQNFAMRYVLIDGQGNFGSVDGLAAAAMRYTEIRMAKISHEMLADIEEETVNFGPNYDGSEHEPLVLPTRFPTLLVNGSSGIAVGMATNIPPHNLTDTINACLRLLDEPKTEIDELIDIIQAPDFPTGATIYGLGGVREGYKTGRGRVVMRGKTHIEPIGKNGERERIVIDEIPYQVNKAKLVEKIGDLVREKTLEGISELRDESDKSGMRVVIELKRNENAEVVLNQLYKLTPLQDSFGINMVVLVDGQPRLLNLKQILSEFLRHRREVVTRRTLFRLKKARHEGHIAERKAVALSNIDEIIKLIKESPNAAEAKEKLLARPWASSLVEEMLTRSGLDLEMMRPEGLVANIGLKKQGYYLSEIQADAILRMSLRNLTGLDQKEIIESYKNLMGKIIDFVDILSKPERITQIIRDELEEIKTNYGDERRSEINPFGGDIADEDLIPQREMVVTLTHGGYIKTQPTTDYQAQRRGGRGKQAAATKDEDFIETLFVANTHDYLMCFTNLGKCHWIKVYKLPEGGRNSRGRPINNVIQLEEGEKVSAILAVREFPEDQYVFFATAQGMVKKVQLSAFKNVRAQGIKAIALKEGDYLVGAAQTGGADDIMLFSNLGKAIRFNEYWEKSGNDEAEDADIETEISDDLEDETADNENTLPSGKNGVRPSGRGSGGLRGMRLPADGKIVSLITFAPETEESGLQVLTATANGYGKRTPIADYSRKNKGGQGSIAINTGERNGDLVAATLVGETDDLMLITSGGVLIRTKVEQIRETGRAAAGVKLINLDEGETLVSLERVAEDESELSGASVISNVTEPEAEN
# T2 sequence (P22118 whole entry partner): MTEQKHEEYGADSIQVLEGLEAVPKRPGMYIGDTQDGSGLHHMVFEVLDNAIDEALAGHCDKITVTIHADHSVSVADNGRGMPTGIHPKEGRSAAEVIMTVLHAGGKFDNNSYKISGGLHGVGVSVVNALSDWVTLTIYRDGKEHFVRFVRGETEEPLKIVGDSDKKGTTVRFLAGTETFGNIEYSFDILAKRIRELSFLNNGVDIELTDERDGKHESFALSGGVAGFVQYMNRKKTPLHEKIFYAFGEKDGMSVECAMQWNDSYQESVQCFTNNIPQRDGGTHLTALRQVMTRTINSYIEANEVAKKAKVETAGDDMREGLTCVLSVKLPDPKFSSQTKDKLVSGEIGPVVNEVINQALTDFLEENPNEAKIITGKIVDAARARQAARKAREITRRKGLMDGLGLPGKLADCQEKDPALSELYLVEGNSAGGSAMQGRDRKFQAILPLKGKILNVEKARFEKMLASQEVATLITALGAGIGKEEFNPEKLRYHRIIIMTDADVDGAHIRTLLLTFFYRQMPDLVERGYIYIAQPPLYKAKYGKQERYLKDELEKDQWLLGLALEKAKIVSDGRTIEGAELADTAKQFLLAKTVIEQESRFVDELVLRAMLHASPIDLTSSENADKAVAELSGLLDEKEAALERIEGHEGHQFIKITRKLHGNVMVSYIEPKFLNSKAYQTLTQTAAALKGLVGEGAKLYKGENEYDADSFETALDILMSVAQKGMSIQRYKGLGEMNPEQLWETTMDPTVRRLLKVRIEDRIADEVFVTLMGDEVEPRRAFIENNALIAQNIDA
# T3 sequence (P48371 whole entry): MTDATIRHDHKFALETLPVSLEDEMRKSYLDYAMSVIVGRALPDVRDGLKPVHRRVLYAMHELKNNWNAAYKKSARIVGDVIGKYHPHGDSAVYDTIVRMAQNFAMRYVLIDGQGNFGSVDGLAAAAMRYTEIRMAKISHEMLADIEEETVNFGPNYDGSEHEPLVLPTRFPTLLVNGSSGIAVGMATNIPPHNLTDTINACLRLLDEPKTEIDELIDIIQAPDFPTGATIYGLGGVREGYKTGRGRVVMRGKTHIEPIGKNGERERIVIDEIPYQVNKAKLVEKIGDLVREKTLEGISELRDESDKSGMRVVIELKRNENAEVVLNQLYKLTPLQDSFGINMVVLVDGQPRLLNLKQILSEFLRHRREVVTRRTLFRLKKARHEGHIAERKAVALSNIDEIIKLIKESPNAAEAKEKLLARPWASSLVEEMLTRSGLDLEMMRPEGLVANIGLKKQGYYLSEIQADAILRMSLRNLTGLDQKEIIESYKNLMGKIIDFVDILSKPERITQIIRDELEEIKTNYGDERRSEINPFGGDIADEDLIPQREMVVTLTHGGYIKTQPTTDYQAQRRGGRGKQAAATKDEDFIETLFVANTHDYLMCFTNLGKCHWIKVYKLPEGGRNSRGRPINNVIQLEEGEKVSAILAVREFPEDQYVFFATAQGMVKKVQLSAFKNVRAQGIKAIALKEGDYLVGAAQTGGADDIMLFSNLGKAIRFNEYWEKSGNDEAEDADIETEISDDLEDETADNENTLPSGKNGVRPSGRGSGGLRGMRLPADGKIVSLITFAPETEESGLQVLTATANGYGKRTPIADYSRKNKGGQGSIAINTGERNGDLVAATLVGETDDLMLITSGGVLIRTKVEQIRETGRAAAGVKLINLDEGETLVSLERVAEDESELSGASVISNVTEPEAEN
# T3 sequence (P22118 whole entry partner): as the sequence (P22118 whole entry partner) above
smiles,measurement,setting,value
O=c1ccc2ncc(=O)n3c2n1C[C@H]3CN1CCC(NCc2cc3c(cn2)OCCC3)CC1 [gepotidacin],IC50,"[1]; ParC D86N topoisomerase IV, read-out: IC50, inhibition of DNA decatenation",> 200 µM
same,inhibition of DNA decatenation,"[1]; ParC D86N, gepotidacin concentrations as high as 200 μM",no inhibition
same,IC50,"[2]; GyrA D95G gyrase, read-out: IC50, inhibition of DNA supercoiling",2 µM
same,fold lower supercoiling IC50 vs WT gyrase,[2]; GyrA D95G vs WT,~2.6 fold
same,IC50,WT N. gonorrhoeae gyrase,5.1 ± 2.3 µM
